Laboratory results reported in ChEMBL document CHEMBL5604062, “ASAP - ZIKV NS2B-NS3 protease fluorescence dose response” (2024).
Several values for one entry are separate records, joined by “and”; a condition that tells them apart may be missing. Equal entries are not always repeated.

Target: Nonstructural protein 3 (Zika virus, UniProt A0A024AXB9)
Experiment: Functional biochemical assay to identify treatments for viral infectious disease that targets Zika NS2B-NS3 protease. Utilizing a direct enzyme activity measurement method, reading the fluorescence intensity is used to characterize the relative potency of inhibitors as IC50.
Design: species or system PRVABC59

Chain of Nonstructural protein 3 (A0A024AXB9 whole entry): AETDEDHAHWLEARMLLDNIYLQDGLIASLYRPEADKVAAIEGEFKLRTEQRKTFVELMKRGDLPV

SMILES	IC50
NCCCc1ccnc(NC(=O)c2cc(Cl)cc(NC(=O)OCc3ccccc3)c2)c1	18.4 µM
N#C[C@H](Nc1cc(Cl)cc(C2CC2)c1)c1ccc(-c2nn[nH]n2)cc1	75.8 µM
Nc1ccc(CNC(=O)[C@@H](NC(=O)OCc2ccccc2)c2ccc(OCc3ccccc3)cc2)nc1	> 99.5 µM
NCc1cccc(NC(=O)[C@@H](NC(=O)OCc2ccccc2)C2CCN(C(=O)c3cscn3)CC2)c1	> 99.5 µM
CCn1ccnc(N(C)[C@@H](CO)Cc2c[nH]c3ccccc23)c1=O	> 99.5 µM
Cc1noc(C)c1Cc1ccc(C(=O)Nc2cccc(CN)c2)o1	> 99.5 µM
O=C(Nc1cc(Cl)cc(C(=O)NCCCc2nnn[nH]2)c1)OCc1ccccc1	> 99.5 µM
O=c1c2ccccc2ncn1CCCn1cnc2ccccc2c1=O	> 99.5 µM
NCc1cccc(NC(=O)c2ccc(OCc3ccccc3)cc2)c1	> 99.5 µM
N#Cc1cc(Cl)cc(C(=O)Nc2cccc(-n3nn[nH]c3=O)c2)c1	> 99.5 µM
NCc1cccc(NC(=O)[C@H](NS(=O)(=O)C2CCCCC2)c2ccc(OCc3ccccc3)cc2)c1	64.8 µM
NS(=O)(=O)c1cccc(N2CCN(Cc3c[nH]c4ccccc34)CC2)c1	> 99.5 µM
Cc1cc(C(=O)Nc2cccc(CN)c2)n2nc(C(F)(F)F)cc2n1	> 99.5 µM
Cc1c(C(=O)NCc2cccc(C3COC3)c2)cc(C2CC2)n1C	> 25 µM
NCc1ccc2c(c1)[C@H]1OCCC[C@H]1[C@H](c1cc(Cl)cc(NC(=O)OCc3ccccc3)c1)N2	6.91 µM
CCn1c(=O)c(N2C[C@@H]3[C@H](C2)[C@H]2CC[C@@H]3O2)nc2ccccc21	> 99.5 µM
NCc1ccc(I)c(NC(=O)c2cc(Cl)cc(NC(=O)OCc3ccccc3)c2)c1	50.6 µM
NCc1cc(F)cc(NC(=O)c2cc(Cl)cc(NC(=O)OCc3ccccc3)c2)c1	5.86 µM
NCc1cccc(NC(=O)[C@@H](NC(=O)OCc2ccccc2)c2cccc(-c3ccc(N)nc3)c2)c1	43.6 µM
C[C@H]1CCN1C(=O)Cn1ccnc(N2CC[C@H](CO)C2)c1=O	> 99.5 µM
NC1(c2cccc(NS(=O)(=O)c3ccc(Oc4ccccc4Cl)cc3)c2)CCC1	> 99.5 µM

SMILES	IC50
Cc1c(C(=O)NCc2ccc(CN)cc2)cc(C2CC2)n1C	> 99.5 µM
Cc1ccc(C(=O)Nc2cccc(CN)c2)cc1NC(=O)Cc1ccncc1	> 99.5 µM
C=C(C)c1cccc([C@@H](NC(=O)OCc2ccccc2)C(=O)Nc2cccc(CN)c2)c1	9.65 µM
Cc1c(CN)c(C(=O)Nc2cc(-c3cccnc3)ccn2)nn1C	> 25 µM
CCn1nc(C)c(CN(C)Cc2ccc3c(c2)CCNCC3)c1C	> 99.5 µM
COc1ccc(S(=O)(=O)n2nc(OC(=O)c3cccc(-c4ccccc4Cl)c3)cc2N)cc1	0.183 µM
CCCn1nc(C)c2c(C(=O)Nc3cccc(CN)c3)cc(C)nc21	> 99.5 µM
COc1ccc(C)cc1S(=O)(=O)N[C@@H](C(=O)Nc1cccc(CN)c1)c1ccc(OCc2ccccc2)cc1	54.6 µM
Cc1c(C(=O)Nc2cccc(C3CCNCC3)c2)cc(C2CC2)n1C	> 99.5 µM
NCc1cccc(NC(=O)[C@@H](NC(=O)OCc2ccccc2)c2ccc(-c3cccnc3F)cc2)c1	45.1 µM
c1ccc2c(CN3CC[C@H](c4c[nH]c5ccccc45)C3)c[nH]c2c1	> 99.5 µM
O=C(O)c1cc(Cl)c(Cl)cc1NS(=O)(=O)c1ccc(Oc2ccccc2Cl)cc1	9.06 µM
Cc1cc(C(=O)Nc2cccc(CN)c2)cc(NCC(F)(F)F)n1	> 99.5 µM
COC(=O)c1cc(CN)cc([C@@H]2C[C@H]2c2cc(Cl)cc(NC(=O)OCc3ccccc3)c2)c1	31.7 µM
c1cc(-c2cc(CN3CCC(c4cscn4)CC3)n[nH]2)ccn1	> 99.5 µM
O=C(Nc1ccc(Cl)cc1C(=O)O)c1ccc(Oc2ccccc2Cl)cc1	> 99.5 µM
Cc1c(C(=O)Nc2cc(C(=O)N[C@H]3CCNC3=O)ccn2)cc(C2CC2)n1C	> 25 µM
Cc1c(NC(=O)c2cccc3c2CC(=O)N3)cnn1C1CCOCC1	> 25 µM
CCn1c(=O)c(N2CC3(COC3)[C@](F)(CO)C2)nc2ccccc21	> 99.5 µM
O=C(Nc1cc(-c2cccnc2)ccn1)c1cc2n(n1)CCC2	> 25 µM
NCc1ccc(NS(=O)(=O)c2ccc(Oc3ccccc3Cl)cc2)cc1Cl	> 99.5 µM

SMILES	IC50
CCn1c(=O)c(N2CC[C@]3(CCSC3)C2)nc2ccccc21	> 99.5 µM
Cn1nnnc1-c1cccc(NC(=O)c2cc(Cl)cc(NC(=O)OCc3ccccc3)c2)c1	> 99.5 µM
CCn1cc(-c2ccc3nn(C)cc3c2)nc(N2CC[C@@H](CO)C2)c1=O	> 99.5 µM
O=C(N[C@@H](C(=O)Nc1cccnc1)c1ccc(OCc2ccccc2)cc1)OCc1ccccc1	> 99.5 µM
N[C@H]1CCN(c2cccc(CNC(=O)c3ccc4[nH]c(=O)[nH]c4c3F)n2)C1	> 99.5 µM
COc1ccc(COc2ccc([C@H](NC(=O)OCc3ccccc3)C(=O)Nc3cccc(CN)c3)cc2)cn1	38.8 µM
O=C1Cc2c(cccc2C(=O)NC[C@H]2CCCN(c3nccs3)C2)N1	> 25 µM
c1ccc(COc2ccc3[nH]cc(CN4CCC(c5cscn5)CC4)c3c2)cc1	> 99.5 µM
CN(C)[C@@H]1CCC[C@H](C(=O)Nc2cccc(CN)c2)C1	> 99.5 µM
c1cc(-c2nnc(NCc3nnn[nH]3)s2)no1	> 99.5 µM
CCn1cc(-c2cnccc2C)nc(N2CC[C@@H](CO)C2)c1=O	> 99.5 µM
CNc1nc2cc(-c3ccc4c(c3)C[C@H](N)C4)ccc2o1	> 99.5 µM
Cc1c(C(=O)Nc2cccc(-c3ccc(O)nc3)c2)cc(C2CC2)n1C	> 25 µM
NC[C@H]1CC[C@@H](CNC(=O)[C@@H](NC(=O)OCc2ccccc2)c2ccc(OCc3ccccc3)cc2)CC1	58.2 µM
Nc1nc2ccc(NC(=O)c3cc(Cl)cc(NC(=O)OCc4ccccc4)c3)cc2[nH]1	> 99.5 µM
Cc1cc(C(=O)Nc2cccc(CN)c2)c2c(C)n[nH]c2n1	> 99.5 µM
Cc1ncc(COc2ccc([C@H](NC(=O)OCc3ccccc3)C(=O)Nc3cccc(CN)c3)cc2)cn1	> 99.5 µM
Clc1cc([C@@H]2C[C@H]2c2cccc(C3CCNCC3)c2)c2cn[nH]c2c1	4.53 µM and 7.81 µM
Cc1c(C(=O)Nc2cc(C(=O)N3CC4(CCO4)C3)ccn2)cc(C2CC2)n1C	> 25 µM
NCCCCc1ccc(NC(=O)c2cc(Cl)cc(NC(=O)OCc3ccccc3)c2)cc1	5.42 µM

The remaining lines, values ahead:

IC50	SMILES
> 99.5 µM	NCc1cccc(NC(=O)c2ccnc3[nH]c(C4CCOCC4)nc23)c1
> 25 µM	O=C(Nc1ccc2c(c1)CNC2)c1ccc(-c2cncs2)cc1
0.197 µM	O=C(NCC(F)F)[C@H](Nc1ccc2c(c1)CNC2)c1cc(Cl)cc(Cl)c1OCCN1CCOCC1
8.27 µM	NCc1cccc(NC(=O)c2cc(Cl)cc(C3CC3)c2)c1
> 99.5 µM	CCNC(=O)Nc1cc(Cl)cc(C(=O)Nc2ccc([C@H](CC)Cc3nnn[nH]3)cc2)c1
0.198 µM	O=C(Nc1ccc2c(c1)CN[C@H]2C[C@H](O)CO)c1cc(Cl)cc2[nH]ncc12
> 99.5 µM	O=C(O)c1cc(Cl)ccc1S(=O)(=O)NC1CCN(Cc2ccccn2)CC1
0.582 µM	N#Cc1c[nH]c2c(C(=O)Nc3ccc4c(c3)CNC4)cccc12
85.7 µM	O=C(Nc1cc(Cl)cc(C(=O)Nc2nc3c(s2)CNC3)c1)OCc1ccccc1
0.15 µM	O=C(NCC(F)F)[C@H](Nc1ccc2c(c1)CNC2)c1cc(Br)ccc1OCc1ccccn1
> 99.5 µM	O=C(O)c1cc(Cc2c[nH]c3ccc(Cl)cc23)cc(C2CC2)n1
2.52 µM	CCS(=O)(=O)c1ccc(Cl)cc1C(=O)Nc1ccc2c(c1)CNC2
1.22 µM	O=C1COc2c(cccc2C(=O)Nc2ccc3c(c2)CNC3)N1
0.13 µM	O=C(Nc1ccc2c(c1)CNC2)c1cc(F)cc2[nH]c(-c3cnccc3O)nc12
2.19 µM	O=C(Nc1ccc2c(c1)CNC2)c1ccc2c(Br)csc2c1
> 25 µM	Cc1c(C(=O)Nc2cccc([C@H]3CCOC3)c2)cc(C2CC2)n1C
3.71 µM	Cc1n[nH]c2nc(Cl)cc(C(=O)Nc3ccc4c(c3)CNC4)c12
0.064 µM and 0.087 µM	CCOC(=O)[C@H](Nc1ccc2c(c1)CNC2)c1cc(Cl)cc(C2CC2)c1
0.1 µM and 0.076 µM	O=C(Nc1ccc2c(c1)CNC2)c1cc(Cl)cc2[nH]c(-c3ccnn3C3CC3)nc12
> 25 µM	CC1(C)CN(C(=O)Nc2ccc3c(c2)CNC3)CC(F)(F)C1
0.042 µM and 0.031 µM	COc1cc(C#N)cc([C@H](Nc2ccc3c(c2)CNC3)C(=O)NCC(F)F)c1

IC50	SMILES
0.449 µM	C=CC[C@H]1NCc2cc(NC(=O)c3cc(Cl)cc4[nH]ncc34)ccc21
5.43 µM	O=C(Nc1cc(Cl)cc(C(=O)Nc2ccc([C@H]3CCNC3)cc2)c1)OCc1ccccc1
3.05 µM	NCc1cccc(NC(=O)c2cc(Cl)cc3c2cnn3CC2CC2)c1
0.423 µM	O=C(Nc1ccc2c(c1)CNC2)c1cc(Cl)cc2[nH]c(-c3nc4c(s3)CCC4)nc12
> 99.5 µM	NC(=O)c1cccnc1N1CCCN(c2nc(-c3cc(Cl)cc(Cl)c3)no2)CC1
2.81 µM	O=C(Nc1ccc2c(c1)CNC2)c1cccc2[nH]cnc12
3.54 µM	O=C(Nc1ccc2c(c1)CNC2)c1cc(Cl)ccc1-n1ccnc1
0.067 µM and 0.036 µM	CCCn1cc2c(C(=O)Nc3ccc4c(c3)CNC4)cc(Cl)cc2n1
0.749 µM	Cc1ccc(S(=O)(=O)CNC(=O)[C@H](Nc2ccc3c(c2)CNC3)c2cc(Cl)cc3[nH]ncc23)cc1
> 99.5 µM	CNC(=O)[C@H](Nc1cccc(N)n1)c1cc(Cl)cc(CN)c1
0.209 µM	O=C(NCC1CCOCC1)[C@H](Nc1ccc2c(c1)CNC2)c1cc(Cl)cc2[nH]ncc12
3.34 µM	Cc1cc(C(=O)Nc2ccc3c(c2)CNC3)cc2nn[nH]c12
> 99.5 µM	O=C(Nc1cc(Cl)cc(C(=O)Nc2cccc(CN3CCCC3=O)c2)c1)OCc1ccccc1
> 25 µM	C(#C[C@H](Nc1ccc2c(c1)CNC2)c1cccc2[nH]ncc12)c1ccccc1
1.19 µM	Cc1[nH]c2c(C(=O)Nc3ccc4c(c3)CNC4)cccc2c1C
> 25 µM	O=C(Nc1ccc2c(c1)CNC2)N1CC[C@H](CC(F)(F)F)C1
> 25 µM	O=C(Nc1ccc2c(c1)CNC2)N1CCC[C@@H]1COCc1ccccc1
0.113 µM	O=C(Nc1ccc2c(c1)CNC2)c1cc(Cl)cc2ccccc12
7.32 µM	O=C(Nc1ccc2c(c1)CNC2)c1cc(C(F)(F)F)nc2[nH]ccc12
> 25 µM	NCc1cc(Cl)cc(C(=O)Nc2ccc3c(c2)C(=O)OC3)c1
0.144 µM	O=C(Nc1ccc2c(c1)CNC2)c1cc(Cl)cc2[nH]c(CCc3cccnc3)nc12
